{
  "source": "patent US20080021002A1",
  "about": "“VITAMIN D COMPOUNDS USED TO STABILIZE KIDNEY TRANSPLANTS” (priority 2000, published 2008)",
  "type_in_all_cases": "in vivo, rat",
  "key": {"TIMP 1 mRNA": {"test_system": "TIMP 1 mRNA", "test": "Semi-quantitative RT-PCR of renal grafts, TIMP 1 mRNA", "conditions": "all groups vs untreated allograft recipients, regardless of treatment", "method": "FIG. 5 is a set of graphs showing that 1,25-(OH)2D3 Treatment Alters MMP and TIMP Expression . […] S26 was used as the housekeeping gene. […] Fold changes are expressed relative to the allogeneic untreated control.\nSemi-quantitative Reverse transcription polymerace chain reaction (RT-PCR): Following graft harvest a […] containing both cortex and medulla was snap frozen in liquid nitrogen. Semi-quantitative RT-PCR was performed as described. Little et al. Transplant Int. 12:393-401, 1999. Briefly, samples were homogenized then total RNA extracted with RNAzol B (Tel Test, Inc., Friendswood, Tex.) and reversed transcribed to cDNA according to manufacturer=s instructions (Superscript, Gibco BRL). PCR was performed over the linear range of amplification for both the gene of interest, e.g. TGFβ-1, and the ribosomal protein S26 as a control housekeeping gene. PCR conditions were chosen such that both products were amplified with similar efficiency. The following cycle parameters were employed: denaturing, 94° C. for 60 seconds; annealing, 61° C. for 60 seconds; and extension, 72° C. for 60 seconds. The amount of product was quantified using a phosphoimager (Storm 80) following gel electrophoresis and Vista green detection."}, "Smad 6 protein": {"test_system": "Smad 6 protein", "test": "Western blot of renal graft lysates, Smad 6 protein", "conditions": "allograft recipients vs allogeneic untreated control group", "excerpt": "Renal lysates were subjected to SDS-PAGE and transferred to nitrocellulose membranes. The membranes were probed with specific anti-Smad antibodies and appropriated HRP-conjugated secondary antibodies. Signal was detected with chemilumensnce. Following exposure, x-ray films were scanned and the amount of expression compared to that of tubulin as an internal control using Scion Image software. FIG. 4 (A) describes R-Smad expression. FIG. 4 (B) described I-Smad expression.\nWestern Blot Analysis: A portion of the snap frozen graft containing both cortex and medulla was ground with a mortar and pestle. For each 100 mg of tissue, the sample was resuspened in 400 ul of lysis buffer (10 mM Tris base, 150 mM NaCl, pH 8.0) containing protease inhibitors (P2714 1:1000. Sigma Chemical Co., St. Louis, Mo.) and homogenized (PowerGen 125, 1 minute). Triton X100 was then added to 1% and the sample place on ice, for 30 minutes. The solubilized sample was then spun at 4° C. for 15 minutes at 15,000×G. The supernatant was collected and stored at −80° C. Sample protein concentrations were determined using the Micro BCA assay (Pierce Chemical Co., Rockford, Ill.) according to manufacturer=s instructions, except that the assay was performed in half area plates combining 35 μl sample with 70 µl of reagent. […]"}, "[1]": {"test_system": "Fisher to Lewis renal allograft", "test": "Fisher to Lewis renal allograft model of chronic allograft nephropathy (graft survival, serum creatinine, urinary protein, histology)", "method": "Animals: Donor and recipients rats (greater than 250 gm) were obtained from Harlan Sprague Dawley, Indianapois, Ind. Recipient animals were placed on experimental diet containing 0.47% Ca 7 days prior to transplantation. Hullett et al., Transplantation 66:824-828, 1998. Recipients were divided into groups which received experimental diet alone or experimental diet containing 1,25-(OH)2D3 (250, 500, or 1000 ng/rat/day) or cyclosporine 1.5 or 5 mg/kg/day i.p. for 10 days. Animals were maintained on diet until the time or rejection or graft harvest at 24 weeks. All care and use of laboratory animals followed the NIH (NIH publication No. 86-23) guidelines. 1,25-(OH)2D3 was prepared, dissolved in ethanol and placed in the experimental diet as previously described.1,25-(OH)2D3 was the generous gift or Dr. Hector DeLuca, Department of Biochemistry, University of Wisconsin. Cyclosporine (Sandimmune i.v.; 1.5 or 5 mg/kg/day for 10 days,) was diluted in saline and given i.p. Transplantation: The Fisher to Lewis model of chronic allograft nephropathy has been previously described. Diamond et al., Transplantation 54:710-716, 1992. Briefly, donor kidneys obtained from male Fisher 344 rats were flushed with 10 ml cold University of Wisconsin preservation solution and stored at 4° C. while the recipient was prepared. […] Lewis male recipients were transplanted with either a Fisher 344 or Lewis kidney following left native nephrectomy. Briefly, the donor renal artery, vein and ureter were anastomosed to the recipient renal artery, vein and ureter. The right native kidney was removed 10 days post-transplant. Graft function was monitored by serum creatinine and urinary protein determinations. Urinary Protein: Proteinuria was assessed weekly. Animals were placed in metabolic cages for 6 hours and urine collected. Protein excretion was determined using a dye binding assay (quanTest red, Quantimetrix Corp., Redondo Beach, Calif.) according to manufacturer=s instructions with minor modifications. Briefly, 20 μl of the urine sample was diluted with 1×PBS in a two-fold series dilution in 96-well flat-bottom microtiter plates (Corning, N.Y.). […] Data was analyzed with Softmax Pro-software (Molecular Devices Corp.; Sunnyvale, Calif.). Graft survival was compared using the log rank test. Differences in mRNA and protein expression were compared by t-test."}, "[2]": {"conditions": "allograft, 500 ng/rat/day, FIG. 2B"}},
  "data": [
    {"smiles": "C=C1/C(=C\\C=C2/CCC[C@]3(C)[C@@H]([C@H](C)CCCC(C)(C)O)CC[C@@H]23)C[C@@H](O)C[C@@H]1O", "note": "[calcitriol, 1,25-dihydroxyvitamin D3]", "values": [
      {"measurement": "TIMP 1 mRNA expression", "setting": "TIMP 1 mRNA", "value": "decreased"},
      {"measurement": "Smad 6 protein expression", "setting": "Smad 6 protein", "value": "decreased"},
      {"measurement": "Graft survival", "setting": "[1]; 250 ng/day in diet, p=0.04", "value": "prolonged graft survival was not as readily demonstrated"},
      {"measurement": "Graft survival", "setting": "[1]; 500 ng/rat/day in diet, vs allogeneic untreated controls, p=0.0009", "value": "significant prolongation of graft survival was sustained"},
      {"measurement": "Urinary protein", "setting": "[1]; 500 ng/rat/day monotherapy (data not shown), vs untreated allogeneic controls or CSA 1.5 mg/kg/d", "value": "significantly lowered"},
      {"measurement": "Calcium deposits in graft", "setting": "[1]; 1000 ng", "value": "Significant calcium deposits"},
      {"measurement": "Graft survival", "setting": "[1]; 1000 ng/rat/day in diet, monotherapy, vs allogeneic untreated controls, p=0.0031", "value": "significantly prolonged"},
      {"measurement": "Urinary protein", "setting": "[1]; 1000 ng/rat/day monotherapy, p=0.004, vs untreated allogeneic controls or CSA 1.5 mg/kg/d (10 days)", "value": "significantly lowered"},
      {"measurement": "Calcium deposition, histological examination", "setting": "[1]; 250 and 500 ng/day groups", "value": "reduced calcium deposition"},
      {"measurement": "Cellular infiltration, histological examination (Banff)", "setting": "[1]; 250 and 500 ng/day groups", "value": "mild to moderate cellular infiltration (Banff IA or IIA)"},
      {"measurement": "Serum calcium levels", "setting": "[1]; 250 and 500 ng/day groups (data not shown)", "value": "remained elevated"},
      {"measurement": "Rise in serum creatinine at 2 weeks post-transplant", "setting": "[1]; 500 or 250 ng/day", "value": "Neither the 500 or the 250 ng/day dose of 1,25-(OH)2D3 prevented the rise"},
      {"measurement": "Prolonged graft survival compared with low dose CSA (5 mg/kg/day for 10 days)", "setting": "[1]; 1000 or 500 ng/rat/day", "value": "not statistically different"},
      {"measurement": "Early acute rejection episode (within 2 weeks post-transplant)", "setting": "[1]; CSA: short-term low dose monotherapy, 1,25-(OH)2D3 in diet", "value": "diminished"},
      {"measurement": "Cellular infiltration (H&E)", "setting": "[1]; [2]", "value": "significantly decreased"},
      {"measurement": "Interstitial fibrosis (H&E)", "setting": "[1]; [2]", "value": "little or no interstitial fibrosis"},
      {"measurement": "Histological features of CAN (interstitial fibrosis, glomerulosclerosis, neointimal hyperplasia)", "setting": "[1]; allografts, H&E, FIG. 2B", "value": "inhibited the development of these pathological features"},
      {"measurement": "Serum creatinine at 2 weeks post-transplant", "setting": "[1]; p=0.035 versus untreated allogeneic control (FIG. 1B)", "value": "only a slight increase"},
      {"measurement": "Collagen deposition (trichrome stain)", "setting": "[1]; treated allograft recipients, FIG. 2D-E", "value": "decreased collagen deposition"}
    ]}
  ]
}
